Among the data in US4303655A, “3,7-Disubstituted-3-cephem-4-carboxylic acid compounds” (Fujisawa Pharmaceutical Co., Ltd., priority 1976, dated 1981) are MIC values, retold here.

≈ marks a conversion by molar mass, not a printed value.

The subject of the assay is E. Coli 324. The assay is described as follows: In vitro antibacterial activity by the two-fold agar-plate dilution method. It counts as cell-based. The conditions noted are these: Escherichia coli, HI-agar, overnight culture 10^8 viable cells per ml., 37° C. for 20 hours, read-out: MIC (minimal inhibitory concentration). Here is the method:
In vitro antibacterial activity was determined by the two-fold agar-plate dilution method as described below. One loopful of an overnight culture of each test strain in Trypticase-soy broth (10^8 viable cells per ml.) was streaked on heart infusion agar (HI-agar) containing graded concentrations of antibiotics, and the minimal inhibitory concentration (MIC) was expressed in terms of μg/ml. after incubation at 37° C. for 20 hours.
As to `Cn1nnnc1SCC1=C(C(=O)O)N2C(=O)C(NC(=O)C(=O)c3csc(N)n3)C2SC1` (centres unmarked) [(1)], the MIC turned out to be 0.05 µg/mL (≈ 0.104 µM).

As to `Nc1nc(C(=O)C(=O)NC2C(=O)N3C(C(=O)O)=C(CSc4nncs4)CSC23)cs1` (centres unmarked) [(2)], the MIC came out at 0.05 µg/mL (≈ 0.103 µM).

`Cc1nnc(SCC2=C(C(=O)O)N3C(=O)C(NC(=O)C(=O)c4csc(N)n4)C3SC2)s1` (centres unmarked) [(3)]: the MIC was found to be 0.05 µg/mL (≈ 0.1 µM).

As to `Cc1nnc(SCC2=C(C(=O)O)N3C(=O)C(NC(=O)C(=O)c4csc(N)n4)C3SC2)o1` (centres unmarked) [(4)], the MIC stood at 0.05 µg/mL (≈ 0.104 µM).

Consider `Cn1cnnc1SCC1=C(C(=O)O)N2C(=O)C(NC(=O)C(=O)c3csc(N)n3)C2SC1` (centres unmarked) [(5)], for which the MIC turned out to be 0.05 µg/mL (≈ 0.104 µM).
